Results reported in US20030148954A1, “Agents and methods for modulating activator protein-1-mediated cellular processes” (Wisconsin Alumni Research Foundation, priority 2001, published 2003).

How the values were obtained:
Assay type in all cases: cell-based, human
c-Jun = test: Western blot of c-Jun protein and c-Jun phosphorylation
Experimental: (§1) Stable Transfection—K562 cells were stably transfected by electroporation with a Bio-Rad Gene pulser electroporator. Cells (5×10^6) were washed with ice-cold PBS, resuspended in 0.5 ml of ice-cold PBS, mixed with 5 μg linearized plasmid DNA, and subjected to electroporation (960 microfarad; 220 V) in a 0.4 cm-wide electroporation cuvette (BTX). pBabe and pNIC-1 were linearized with NotI. Cells were then added to 20 ml of complete IMEM, grown for 48 h, and diluted in complete IMEM containing 1.5 μg/ml puromycin (pools of K562-Babe and K562-NIC-1 cells). Stably transfected cells were analyzed for erythroid differentiation as soon as the pools were generated by benzidine staining to reduce the probability of phenotypic changes that may result from prolonged growth.
Cells were washed once with ice-cold PBS, cell pellets were resuspended in 30 μl ice-cold PBS and were immediately boiled in 70 μl SDS sample buffer for 10 min. Proteins (10 μl) were resolved by SDS-PAGE on a 10% acrylamide gel and transferred to Immobilon P membrane (Millipore). After blocking membranes in 5% nonfat dry milk in TBST (10 mM Tris pH 8.0, 150 mM NaCl, 0.3% Tween-20), membranes were incubated with primary antibody (diluted 1:1000 in dry milk/TBST). […] Antigen-antibody complexes were detected with ECL Plus™ (Amersham Life Science) according to manufacturer's instructions.

IL-8 = test: Northern blotting of IL-8 transcripts in K562-Babe and K562-NIC-1 cells; details: 5 nM TPA 12 h, stably transfected NIC-1
Experimental: as §1
Northern Blotting—Total RNA from K562-Babe and K562-NIC-1 cells was extracted with Triazol (Life Technologies, Inc.). Ten μg of RNA per sample was electrophoresed on a 1% agarose, 6.6% formaldehyde gel and then transferred overnight to a Magnacharge nylon membrane (Osmonics). RNA was cross-linked to the membrane by UV irradiation. Membranes were prehybridized for 30 min at 60° C. in ExpressHyb hybridization solution (Clontech). […] Radioactivity was quantitated by PhosphorImager analysis with ImageQuant software (Molecular Dynamics).

CSL (CBF1) = test: CSL-dependent luciferase reporter, transient transfection of HeLa cells
Text: Plasmids—The pBabe-NIC-1 (pNIC-1) expression vector encoding constitutively active Notch-1 (NIC-1) was described previously (36,37,51). This vector was derived from the pBabe-puro retroviral vector and includes a cDNA sequence encoding amino acids 1759-2556 of human Notch-1 with a Myc tag fused to its carboxyl terminus. Human NIC-1 deletion mutants were generated by PCR using a full-length human Notch-1 expression vector as the template. The Notch-dependent reporter plasmid containing four CBF1 binding sites and an simian virus 40 promoter fused to luciferase (p4×CBF1luc) was described previously (52). The AP-1 reporter plasmid (p1×AP1luc) containing a collagenase promoter fragment (−73/+67) with a single AP-1 binding site in the luciferase reporter vector pGL2-basic (Promega) was described previously (53). The NF-κB reporter plasmid (p3×κBluc) containing three NF-κB binding sites and a minimal promoter fused to luciferase was a kind gift of Dr. Shigeki Miyamoto (University of Wisconsin Medical School). […]
For each transfection, cells were incubated for 26 h after transfection and then treated with TPA (final concentration: 5 nM) or the vehicle (DMSO). […] Luciferase activity was normalized by the protein content of the lysates, determined by Bradford assay using γ-globulin as a standard.

In the case of “NIC-1: constitutively active Notch-1 intracellular domain, amino acids 1759-2556 of human Notch-1 with carboxyl-terminal Myc tag, expressed from pBabe-NIC-1”, the “effect on time-dependent induction of phosphorylation of c-Jun (serine 73) and JunD” value (c-Jun; 5 nM TPA for 0, 5, 10, or 20 min) is reported as “no effect”, the “effect on c-Jun protein levels” value (c-Jun; K562-NIC-1 versus K562-Babe) is reported as “did not affect” and the “TPA induction of IL-8 transcript levels in K562-NIC-1 versus K562-Babe cells” value (IL-8) is reported as “considerably lower”. For the same substance, the “activation of CSL-dependent reporter activity” value (CSL (CBF1)) was “strongly activated”.
